The values that follow come from paper PMC4404333, “Identification of Selective Inhibitors of the Plasmodium falciparum Hexose Transporter PfHT by Screening Focused Libraries of Anti-Malarial Compounds” (PLoS ONE, 2015).

The structures appear in SMILES notation. “And” between values parts separate entries of the source, which are not always exact repeats. Identical values can stand only once. Like-named read-outs stand apart in the source and are kept apart here.

The subject of one assay is P. falciparum strain 3D7. Briefly: Proliferation of intraerythrocytic P. falciparum 3D7 (SYBR Green, 72 h). It counts as cell-based, Plasmodium falciparum. The note with it: Plasmodium falciparum, 3D7, 72 h, read-out: Pf 3D7 EC50. Here is the method: (§1) Two P. falciparum strains were used in this study and were provided by the MR4 Unit of the American Type Culture Collection (ATCC, Manassas, VA). Those two strains were the chloroquine sensitive strain 3D7 and the K1 strain that is resistant to chloroquine, pyrimethamine, and sulfadoxine.
(§2) Asynchronous parasites were maintained in culture based on the method of Trager. Parasites were grown in presence of fresh group O-positive erythrocytes (Key Biologics, LLC) in Petri dishes at a hematocrit of 4–6% in RPMI based media (RPMI 1640 supplemented with 0.5% AlbuMAX II, 25 mM HEPES, 25 mM NaHCO3 (pH 7.3), 100 μg/mL hypoxanthine, and 5 μg/mL gentamycin). Cultures were incubated at 37°C in a gas mixture of 90% N2, 5% O2, 5% CO2. For EC50 determinations, 20 μL of RPMI 1640 with 5 μg/mL gentamycin were dispensed per well in an assay plate (Corning 384-well microtiter plate, clear bottom, tissue culture treated, catalog no. 8807BC). 40 nL of compound, previously serially diluted in a separate 384-well white polypropylene plate (Corning, catalog no. 8748BC), was dispensed to the assay plate by hydrodynamic pin transfer (FP1S50H, V&P Scientific Pin Head) and then 20 μL of a synchronized culture suspension (1% rings, 4% hematocrit) was added to each well, thus making a final hematocrit and parasitemia of 2% and 1%, respectively. Assay plates were incubated for 72 h, and the parasitemia was determined by a method previously described: Briefly, 10 μL of the assay solution in PBS (10X SYBR Green I, 0.5% v/v triton X-100, 0.5 mg/mL saponin) was added to each well. Assay plates were shaken for 1 min, incubated in the dark for 90 min, and read with an Envision (Perkin Elmer) spectrophotometer at Ex/Em of 485 nm/535 nm. EC50s were calculated with a custom program (RISE, Robust Investigation of Screening Experiments) using a four-parameter logistic equation.

The next assay deals with P. falciparum strain K1. Briefly: Proliferation of intraerythrocytic P. falciparum K1 (SYBR Green, 72 h). It counts as cell-based, Plasmodium falciparum. As to conditions: Plasmodium falciparum, K1, 72 h, read-out: Pf K1 EC50. Here is the method:
as §1, §2

The test system of assay [1] is P. falciparum strain 3D7 intraerythrocytic forms. Set-up: method as in PubChem web site, http://pubchem.ncbi.nlm.nih.gov/. The note with it: reported values; ref PubChem web site, http://pubchem.ncbi.nlm.nih.gov/; read-out: EC50 3D7 In vitro; cited from earlier work.
In a further assay the target is PfHT (Plasmodium falciparum, UniProt Q7KWJ5). Briefly: Uptake of [3H] D-glucose by L. mexicana Δlmxgt1-3 null mutants expressing PfHT. The note with it: for SIglucose GLUT1/PfHT (Specificity Index, IC50 for GLUT1/IC50 for PfHT): uptake of 100 μM [3H] D-glucose; for Ki: linear regression; for Vmax: glucose uptake by PfHT. It counts as cell-based. Set-up: expressed in transfected cells; host or cells: Leishmania mexicana promastigotes, Δlmxgt1-3 hexose transporter null mutant. Here is the method:
(§3) Glucose uptake assays employed logarithmic phase L. mexicana promastigotes of the Δlmxgt1-3 hexose transporter null mutant strain expressing either PfHT or GLUT1 from an episomal expression vector [17]. Parasites (1x10^7) were resuspended in 100 μL phosphate buffered saline, pH 7.4. Prior to uptake, parasites were pre-incubated for 5 min with inhibitor, and uptake was initiated by adding 100 μL of 200 μM [^3H] D-glucose diluted to 4.0 μCi/mL. Uptake was terminated, typically after 1 min, by centrifuging the parasites through a layer of dibutyl phthalate, as described. Control uptake assays employing [^3H] hypoxanthine, [^3H] uridine, and [^3H] L-proline were performed similarly. Analysis of kinetic data was performed using Graph Pad Prism 4.0b software (Graph Pad).

A further assay has as its target T1, human GLUT1 (Homo sapiens, UniProt P11166).
T1 sequence (P11166 1-492): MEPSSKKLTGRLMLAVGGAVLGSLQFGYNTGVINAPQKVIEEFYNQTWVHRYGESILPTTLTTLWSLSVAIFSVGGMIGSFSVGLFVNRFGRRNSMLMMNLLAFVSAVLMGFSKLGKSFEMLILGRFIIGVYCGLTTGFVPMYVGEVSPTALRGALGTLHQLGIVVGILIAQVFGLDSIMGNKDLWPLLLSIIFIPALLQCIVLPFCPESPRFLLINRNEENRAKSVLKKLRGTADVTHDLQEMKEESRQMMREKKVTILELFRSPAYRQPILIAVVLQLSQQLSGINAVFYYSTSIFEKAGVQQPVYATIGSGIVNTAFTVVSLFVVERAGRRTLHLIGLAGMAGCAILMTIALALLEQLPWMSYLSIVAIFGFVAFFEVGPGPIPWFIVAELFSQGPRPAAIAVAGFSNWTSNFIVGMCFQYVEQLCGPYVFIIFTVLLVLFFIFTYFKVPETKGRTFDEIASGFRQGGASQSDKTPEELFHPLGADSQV
Briefly: Uptake of [3H] D-glucose by L. mexicana Δlmxgt1-3 null mutants expressing GLUT1. It counts as cell-based. Also noted: expressed in transfected cells; host or cells: Leishmania mexicana promastigotes, Δlmxgt1-3 hexose transporter null mutant. The note with it: inhibition of uptake of 100 μM [3H] D-glucose, 1 min uptake assay. Here is the method:
as §3

Where [2] appears, read: read-out: IC50 PfHT, inhibition of uptake of 100 μM [3H] D-glucose, 1 min uptake assay.

Sequence of PfHT (Q7KWJ5 whole entry): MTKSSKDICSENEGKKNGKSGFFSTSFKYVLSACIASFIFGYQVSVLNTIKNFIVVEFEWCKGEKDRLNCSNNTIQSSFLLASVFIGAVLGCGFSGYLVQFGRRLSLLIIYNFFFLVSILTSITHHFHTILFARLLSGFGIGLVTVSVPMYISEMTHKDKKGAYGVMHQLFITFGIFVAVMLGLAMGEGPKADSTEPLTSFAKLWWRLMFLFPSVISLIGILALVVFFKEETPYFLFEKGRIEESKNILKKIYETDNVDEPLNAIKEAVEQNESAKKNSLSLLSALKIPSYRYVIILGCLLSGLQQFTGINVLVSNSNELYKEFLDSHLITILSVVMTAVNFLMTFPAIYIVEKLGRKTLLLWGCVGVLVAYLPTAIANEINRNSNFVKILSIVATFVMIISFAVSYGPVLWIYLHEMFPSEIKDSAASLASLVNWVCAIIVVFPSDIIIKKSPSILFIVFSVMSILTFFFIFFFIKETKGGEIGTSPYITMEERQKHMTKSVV

For the compound `CCN(CC)CCCC(C)Nc1ccnc2cc(Cl)ccc12` (centres unmarked) [Chloroquine, chloroquine, reference compound], the figures for the EC50 in the assay with P. falciparum strain 3D7 and with P. falciparum strain K1 were 80 nM and 810 nM, respectively.

Consider `CCC(C)(CC)C(=O)n1ncc2c3c(N)nc(N)nc3ccc21` [Compound 2], for which, in assay [1], the EC50 was 10 nM. In addition, at PfHT, half-maximal inhibition (IC50) required 3 µM and the “SIglucose GLUT1/PfHT (Specificity Index, IC50 for GLUT1/IC50 for PfHT)” value was found to be 15. The compound also displayed an IC50 on human GLUT1 of 44 µM.

For `CC(C)C(C(=O)n1ncc2c3c(N)nc(N)nc3ccc21)C(C)C` [Compound 3], the EC50 in assay [1] was 650 nM. Also, on PfHT, the half-inhibitory concentration (IC50) is 1.1 µM and the “SIglucose GLUT1/PfHT (Specificity Index, IC50 for GLUT1/IC50 for PfHT)” value came to 7.4. In addition, the IC50 against human GLUT1 was found to be 8.1 µM.

With `CCC(C)(C)C1CCc2[nH]c3ccccc3c(=O)c2C1` (centres unmarked) [Compound 4], the 50% effective concentration (EC50) in assay [1] is 380 nM. Further, the results for the 50% inhibitory concentration (IC50) on PfHT and at human GLUT1 were 27 µM and 5.7 µM, respectively. For the same compound, the “SIglucose GLUT1/PfHT (Specificity Index, IC50 for GLUT1/IC50 for PfHT)” value on PfHT is 0.21.

With `COc1ccc(Nc2cc(C)nc(Nc3ccc(NC(C)=O)cc3)n2)cc1` [Compound 5], the 50% effective concentration (EC50) in assay [1] was 860 nM. Also, at PfHT, the IC50 came out at 3.4 µM and the “SIglucose GLUT1/PfHT (Specificity Index, IC50 for GLUT1/IC50 for PfHT)” value is 0.073. At human GLUT1, this compound showed an IC50 of 0.25 µM.

As to `Cc1cc(=O)[nH]c(-n2nc(C)cc2NC(=O)C(c2ccccc2)c2ccccc2)n1` [Compound 6], in assay [1], the EC50 is 840 nM. Further, the IC50 amounted to 12 µM against PfHT and 0.66 µM at human GLUT1. For the same compound, the “SIglucose GLUT1/PfHT (Specificity Index, IC50 for GLUT1/IC50 for PfHT)” value at PfHT is given as 0.055.

Take `O=C1c2ccc3c4c(ccc(c24)C(=O)N1CCCCO)C(=O)N(CCCCO)C3=O` [Compound 7]: the EC50 in assay [1] is 790 nM. The IC50 was 0.051 µM at PfHT; 3.6 µM and > 3 µM at human GLUT1. At PfHT, the “selective inhibition of PfHT versus GLUT1” value is 71 fold. Also, the inhibition constant Ki on PfHT (Kic (Ki for binding of inhibitor to free transporter), from plot of Km/Vmax versus [I]) stood at 93 nM; on PfHT (Kiu (Ki for binding of inhibitor to substrate-bound transporter), from plot of 1/Vmax versus [I]), 91 nM. The Vmax on PfHT ([I] 100 nM) is 274 ± 71 pmol per 10^7 cells per min; on PfHT ([I] 300 nM) it was 128 ± 42 pmol per 10^7 cells per min. At PfHT (substrate saturation curves, one-way ANOVA of Vmax and Km), the “mode of inhibition of glucose uptake through PfHT” value is recorded as “non-competitive inhibitors”. The “SIglucose GLUT1/PfHT (Specificity Index, IC50 for GLUT1/IC50 for PfHT)” value at PfHT is 71.

For `CC(C)(C)C(=O)Nc1ccc(C(=O)Nc2cccc(-c3nc4ccccc4[nH]3)c2)cc1` [Compound 8], the EC50 in assay [1] is 280 nM. For the same compound, the IC50 amounted to 2.7 µM against PfHT and 0.37 µM on human GLUT1. Besides, at PfHT, the “SIglucose GLUT1/PfHT (Specificity Index, IC50 for GLUT1/IC50 for PfHT)” value worked out at 0.14.

`CCN1CCN(Cc2ccc(NC(=O)c3cc4ccc5cccnc5c4[nH]3)cc2)CC1` [Compound 9]: the EC50 in assay [1] is 380 nM. At PfHT, the concentration for half-maximal inhibition (IC50) is 3.5 µM and the “SIglucose GLUT1/PfHT (Specificity Index, IC50 for GLUT1/IC50 for PfHT)” value was 2.7. Moreover, at human GLUT1, the IC50 was 9.5 µM.

In the case of `COc1ccc(Nc2ccc3cc(S(=O)(=O)N4CCCCC4C)ccc3n2)cc1Cl` (centres unmarked) [Compound 11], on PfHT, it took 0.94 µM to reach half-maximal inhibition (IC50); the “selective inhibition of PfHT versus GLUT1” value worked out at 65 fold; the “SIglucose GLUT1/PfHT (Specificity Index, IC50 for GLUT1/IC50 for PfHT)” value worked out at 65. Moreover, it took 61 µM to reach half-maximal inhibition against human GLUT1 (IC50).

Regarding `COc1ccccc1Nc1ccc2cc(S(=O)(=O)N3CCCC3)ccc2n1` [Compound 14], the half-inhibitory concentration (IC50) was > 10 µM on PfHT (setting [2]) and 6.3 µM on human GLUT1.

`COc1ccc(Nc2ccc3cc(S(=O)(=O)N4CCOCC4)ccc3n2)cc1OC` [Compound 15]: at PfHT, the midpoint of inhibition, the IC50, lay at 3.1 µM and the “SIglucose GLUT1/PfHT (Specificity Index, IC50 for GLUT1/IC50 for PfHT)” value was determined as 0.27. In addition, the IC50 at human GLUT1 was determined as 0.84 µM.

`Cc1ccc(C(=O)Nc2cccc(-c3nc4ccccc4[nH]3)c2)cc1` [Compound 16]: on PfHT, the IC50 is 23 µM; the “SIglucose GLUT1/PfHT (Specificity Index, IC50 for GLUT1/IC50 for PfHT)” value is 2–3 and 3.1. The same compound displayed an IC50 against human GLUT1 of 72 µM.

With `Cc1cccc(C(=O)Nc2cccc(-c3nc4ccccc4[nH]3)c2)c1` [Compound 17], the IC50 worked out at 13 µM against PfHT and 12 µM at human GLUT1. At PfHT, the “SIglucose GLUT1/PfHT (Specificity Index, IC50 for GLUT1/IC50 for PfHT)” value was 0.92.

As to `Cc1cc(C)cc(C(=O)Nc2cccc(-c3nc4ccccc4[nH]3)c2)c1` [Compound 18], the IC50 worked out at 16 µM against PfHT and 12 µM against human GLUT1. Moreover, the “SIglucose GLUT1/PfHT (Specificity Index, IC50 for GLUT1/IC50 for PfHT)” value at PfHT amounted to 0.75.

For `O=C(Nc1cccc(-c2nc3ccccc3[nH]2)c1)c1ccccc1` [Compound 19], on PfHT, the IC50 amounted to 5.3 µM; the “SIglucose GLUT1/PfHT (Specificity Index, IC50 for GLUT1/IC50 for PfHT)” value was 2–3 and 2.1. The same compound showed an IC50 against human GLUT1 of 11 µM.

For `CC(C)(C)c1ccc(C(=O)Nc2cccc(-c3nc4ccccc4[nH]3)c2)cc1` [Compound 20], the IC50 at PfHT (setting [2]) is > 10 µM; against human GLUT1, 31 µM.

With `CC(C)(C)C(=O)Nc1ccc(C(=O)Nc2ccc(-c3nc4ccccc4[nH]3)cc2)cc1` [Compound 21], at PfHT, half-maximal inhibition (IC50) required 91 µM and the “SIglucose GLUT1/PfHT (Specificity Index, IC50 for GLUT1/IC50 for PfHT)” value stood at 0.12. At human GLUT1, this compound yielded an IC50 of 11 µM.

On to `OC(c1cc(C(F)(F)F)nc2c(C(F)(F)F)cccc12)C1CCCCN1` (centres unmarked) [Mefloquine, mefloquine, reference compound], for which the EC50 came to 120 nM with P. falciparum strain 3D7 (chloroquine sensitive strain 3D7, 72 h) and 20 nM with P. falciparum strain K1 (multi-drug resistant strain K1, 72 h).
